Measured values: ChEMBL document CHEMBL2169878 (J Med Chem, 2012)
The source made the active and inactive calls. The calls are words filed in the database; no cut-off is given here.

What was measured:
Plasmodium berghei [1] = assay: Antimalarial activity against Plasmodium berghei ANKA expressing GFP infected in mouse assessed as mean survival days at 30 mg/kg, po administered 24 hrs post-infection (reference value: 6 to 7 days); format: functional
Salmonella typhimurium [2] = assay: Mutagenicity against Salmonella typhimurium TA100 assessed as revertants at 34 uM incubated for 90 mins followed by drug washout measured after 2 days relative to positive control; format: toxicity, organism-based; details: salmonella enterica subsp. enterica serovar typhimurium
Plasmodium berghei [3] = assay: Antimalarial activity against Plasmodium berghei ANKA expressing GFP infected in mouse assessed as cure from infection at 30 mg/kg, po administered 24 hrs post-infection measured on day 30; format: functional, organism-based; design: dose 30 mg/kg
Salmonella typhimurium [4] = assay: Mutagenicity against Salmonella typhimurium TA98 assessed as revertants at 4 uM incubated for 90 mins followed by drug washout measured after 2 days relative to positive control; format: toxicity, organism-based; details: salmonella enterica subsp. enterica serovar typhimurium
Salmonella typhimurium [5] = assay: Mutagenicity against Salmonella typhimurium TA98 assessed as revertants at 17 uM incubated for 90 mins followed by drug washout measured after 2 days relative to positive control; format: toxicity, organism-based; details: salmonella enterica subsp. enterica serovar typhimurium
[6] = Cytotoxicity against mouse NIH3T3 cells after 24 hrs by neutral red dye uptake assay; format: cell-based; details: read-out: TC50
Plasmodium falciparum [7] = assay: Antiplasmodial activity against chloroquine-sensitive Plasmodium falciparum D10 infected in human RBC after 72 hrs by parasite lactate dehydrogenase assay; format: functional, organism-based; details: D10, 72 h
Plasmodium berghei [8] = assay: Antimalarial activity against Plasmodium berghei ANKA expressing GFP infected in mouse assessed as mean survival days at 30 mg/kg, po administered QD for 3 days (reference value: 6 to 7 days); format: functional
Salmonella typhimurium [9] = assay: Mutagenicity against Salmonella typhimurium TA100 assessed as revertants at 1.5 uM incubated for 90 mins followed by drug washout measured after 2 days relative to positive control; format: toxicity, organism-based; details: salmonella enterica subsp. enterica serovar typhimurium, 1.5 h
Salmonella typhimurium [10] = assay: Mutagenicity against Salmonella typhimurium TA100 assessed as revertants at 3 uM incubated for 90 mins followed by drug washout measured after 2 days relative to positive control; format: toxicity, organism-based; details: salmonella enterica subsp. enterica serovar typhimurium, 1.5 h
Plasmodium berghei [11] = assay: Antimalarial activity against Plasmodium berghei ANKA expressing GFP infected in mouse assessed as mean survival days at 50 mg/kg, po administered QD for 3 days (reference value: 6 to 7 days); format: functional
Plasmodium falciparum [12] = assay: Antiplasmodial activity against chloroquine-resistant Plasmodium falciparum W2 infected in human RBC after 72 hrs by parasite lactate dehydrogenase assay; format: functional, organism-based; details: W2, 72 h
Plasmodium berghei [13] = assay: Antimalarial activity against Plasmodium berghei ANKA expressing GFP infected in mouse assessed as cure from infection at 50 mg/kg, po administered QD for 3 days measured on day 30; format: functional, organism-based; design: dose 50 mg/kg
Plasmodium falciparum [14] = assay: Antiplasmodial activity against chloroquine-sensitive Plasmodium falciparum NF54 infected in human erythrocytes assessed as inhibition of [3H]hypoxanthine incorporation incubated for 48 hrs prior to [3H]hypoxanthine addition measured after 48 hrs by liquid scintillation counting; format: functional, organism-based
Plasmodium berghei [15] = assay: Antimalarial activity against Plasmodium berghei ANKA expressing GFP infected in mouse assessed as reduction in parasitemia at 30 mg/kg, po administered at 6,24,48 and 72 hrs post-infection measured 24 hrs post-final dosing by flow cytometric analysis; format: functional; design: scale not given: the % may be the effect or the level left
[16] = target: Chloroquine resistance transporter (Plasmodium falciparum, UniProt Q9N623); assay: Inhibition of chloroquine-resistant Plasmodium falciparum Dd2 CRT expressed in Xenopus laevis oocyte assessed as inhibition of [3H]chloroquine uptake measured from 1 to 2 hrs
Plasmodium falciparum [17] = assay: Resistance ratio of IC50 for chloroquine-resistant Plasmodium falciparum K1 to IC50 for chloroquine-sensitive Plasmodium falciparum NF54; format: functional
Plasmodium berghei [18] = assay: Antimalarial activity against Plasmodium berghei ANKA expressing GFP infected in mouse assessed as cure from infection at 30 mg/kg, po administered QD for 3 days measured on day 30; format: functional, organism-based; design: dose 30 mg/kg
Plasmodium berghei [19] = assay: Antimalarial activity against Plasmodium berghei ANKA expressing GFP infected in mouse assessed as reduction in parasitemia at 30 mg/kg, po administered 24 hrs post-infection measured 48 hrs post-dosing by flow cytometric analysis; format: functional; design: scale not given: the % may be the effect or the level left
Salmonella typhimurium [20] = assay: Mutagenicity against Salmonella typhimurium TA100 assessed as revertants at 17 uM incubated for 90 mins followed by drug washout measured after 2 days relative to positive control; format: toxicity, organism-based; details: salmonella enterica subsp. enterica serovar typhimurium
Salmonella typhimurium [21] = assay: Mutagenicity against Salmonella typhimurium TA100 assessed as revertants at 1 uM incubated for 90 mins followed by drug washout measured after 2 days relative to positive control; format: toxicity, organism-based; details: salmonella enterica subsp. enterica serovar typhimurium, 1.5 h
Salmonella typhimurium [22] = assay: Mutagenicity against Salmonella typhimurium TA98 assessed as revertants at 8 uM incubated for 90 mins followed by drug washout measured after 2 days relative to positive control; format: toxicity, organism-based; details: salmonella enterica subsp. enterica serovar typhimurium, 1.5 h
Plasmodium berghei [23] = assay: Antimalarial activity against Plasmodium berghei ANKA expressing GFP infected in mouse assessed as reduction in parasitemia at 30 mg/kg, po administered QD for 3 days measured 24 hrs post-final dosing by flow cytometric analysis; format: functional; design: scale not given: the % may be the effect or the level left
Plasmodium berghei [24] = assay: Antimalarial activity against Plasmodium berghei ANKA expressing GFP infected in mouse assessed as cure from infection at 100 mg/kg, po administered 24 hrs post-infection measured on day 30; format: functional, organism-based; design: dose 100 mg/kg
Salmonella typhimurium [25] = assay: Mutagenicity against Salmonella typhimurium TA98 assessed as revertants at 2 uM incubated for 90 mins followed by drug washout measured after 2 days relative to positive control; format: toxicity, organism-based; details: salmonella enterica subsp. enterica serovar typhimurium, 1.5 h
Plasmodium falciparum [26] = assay: Resistance ratio of IC50 for chloroquine-resistant Plasmodium falciparum W2 to IC50 for chloroquine-sensitive Plasmodium falciparum D10; format: functional
Plasmodium berghei [27] = assay: Antimalarial activity against Plasmodium berghei ANKA expressing GFP infected in mouse assessed as reduction in parasitemia at 50 mg/kg, po administered QD for 3 days measured 24 hrs post-final dosing by flow cytometric analysis; format: functional; design: scale not given: the % may be the effect or the level left
Salmonella typhimurium [28] = assay: Mutagenicity against Salmonella typhimurium TA98 assessed as revertants at 34 uM incubated for 90 mins followed by drug washout measured after 2 days relative to positive control; format: toxicity, organism-based; details: salmonella enterica subsp. enterica serovar typhimurium, 1.5 h
Plasmodium berghei [29] = assay: Antimalarial activity against Plasmodium berghei ANKA expressing GFP infected in mouse assessed as mean survival days at 30 mg/kg, po administered at 6,[…],[…] and 72 hrs post-infection (reference value: 6 to 7 days); format: functional
[30] = target: T1, Chloroquine resistance transporter (Plasmodium falciparum) (UniProt Q9N623); assay: Inhibition of chloroquine-sensitive Plasmodium falciparum D10 CRT expressed in Xenopus laevis oocyte assessed as inhibition of [3H]chloroquine uptake at 100 uM measured from 1 to 2 hrs
T1 sequence (whole entry): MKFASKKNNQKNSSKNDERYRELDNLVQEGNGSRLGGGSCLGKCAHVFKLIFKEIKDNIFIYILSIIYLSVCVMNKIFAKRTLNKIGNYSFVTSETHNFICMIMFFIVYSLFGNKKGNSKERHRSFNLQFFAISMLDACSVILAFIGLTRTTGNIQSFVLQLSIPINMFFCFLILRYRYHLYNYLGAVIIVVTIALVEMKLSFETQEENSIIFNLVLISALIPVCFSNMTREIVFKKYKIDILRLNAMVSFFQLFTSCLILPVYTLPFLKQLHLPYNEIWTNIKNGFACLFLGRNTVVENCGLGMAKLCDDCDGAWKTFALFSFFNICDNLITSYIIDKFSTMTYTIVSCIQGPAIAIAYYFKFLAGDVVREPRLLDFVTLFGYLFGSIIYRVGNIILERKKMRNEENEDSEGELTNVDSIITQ

[31] = Cytotoxicity against human HepG2 cells after 24 hrs by neutral red dye uptake assay; format: cell-based; details: read-out: TC50
Plasmodium falciparum [32] = assay: Antiplasmodial activity against chloroquine-resistant Plasmodium falciparum K1 infected in human erythrocytes assessed as inhibition of [3H]hypoxanthine incorporation incubated for 48 hrs prior to [3H]hypoxanthine addition measured after 48 hrs by liquid scintillation counting; format: functional, organism-based
Salmonella typhimurium [33] = assay: Mutagenicity against Salmonella typhimurium TA98 assessed as revertants at 1 uM incubated for 90 mins followed by drug washout measured after 2 days relative to positive control; format: toxicity, organism-based; details: salmonella enterica subsp. enterica serovar typhimurium
Plasmodium berghei [34] = assay: Antimalarial activity against Plasmodium berghei ANKA expressing GFP infected in mouse assessed as cure from infection at 30 mg/kg, po administered at 6,24,48 and 72 hrs post-infection measured on day 30; format: functional, organism-based; design: dose 30 mg/kg
Plasmodium berghei [35] = assay: Antimalarial activity against Plasmodium berghei ANKA expressing GFP infected in mouse assessed as reduction in parasitemia at 100 mg/kg, po administered 24 hrs post-infection measured 48 hrs post-dosing by flow cytometric analysis; format: functional; design: scale not given: the % may be the effect or the level left
Plasmodium berghei [36] = assay: Antimalarial activity against Plasmodium berghei ANKA expressing GFP infected in mouse assessed as mean survival days at 100 mg/kg, po administered 24 hrs post-infection (reference value: 6 to 7 days); format: functional
Salmonella typhimurium [37] = assay: Mutagenicity against Salmonella typhimurium TA100 assessed as revertants at 8 uM incubated for 90 mins followed by drug washout measured after 2 days relative to positive control; format: toxicity, organism-based; details: salmonella enterica subsp. enterica serovar typhimurium
[38] = target: T1, Chloroquine resistance transporter (Plasmodium falciparum); assay: Inhibition of chloroquine-resistant Plasmodium falciparum Dd2 CRT expressed in Xenopus laevis oocyte assessed as inhibition of [3H]chloroquine uptake at 100 uM measured from 1 to 2 hrs
Heart [39] = assay: Cardiotoxicity against Sprague-Dawley rat Langendorff perfused heart assessed as QT time interval at 30 uM by electrophysiological analysis (reference value: 68.51 2.73 ms); format: toxicity, tissue-based
Heart [40] = assay: Cardiotoxicity against Sprague-Dawley rat Langendorff perfused heart assessed as QT time interval at 10 uM by electrophysiological analysis (reference value: 68.51 2.73 ms); format: toxicity, tissue-based

With `Clc1cccc(C(Nc2ccnc3cc(Cl)ccc23)c2ccc(CN3CCNCC3)cc2)c1` (racemic) the MSD (Plasmodium berghei [1]) was 24 days, the Activity (Salmonella typhimurium [2]) was 2% and the Activity (Plasmodium berghei [3]) was “inactive”. The Activity (Salmonella typhimurium [4]) was 4%, the Activity (Salmonella typhimurium [5]) was 11% and the CC50 at 24 h [6] was 16000 nM. It also gave an IC50 (Plasmodium falciparum [7]) of 25 nM, an MSD (Plasmodium berghei [8]) of 30 days and an Activity (Salmonella typhimurium [9]) of 5%. For the same compound, the Activity (Salmonella typhimurium [10]) was 3%, the MSD (Plasmodium berghei [11]) was 30 days and the IC50 (Plasmodium falciparum [12]) was 33 nM. For the same compound, the Activity (Plasmodium berghei [13]) was “inactive”, the IC50 (Plasmodium falciparum [14]) was 19 nM and the Activity (Plasmodium berghei [15]) was 99.9%. The IC50 [16] was 10500 nM, the “Ratio IC50” value (Plasmodium falciparum [17]) was 1.2 and the Activity (Plasmodium berghei [18]) was “Active”. The Activity (Plasmodium berghei [19]) was 99.7%, the Activity (Salmonella typhimurium [20]) was 7% and the Activity (Salmonella typhimurium [21]) was 6%. The Activity (Salmonella typhimurium [22]) was 16%, the Activity (Plasmodium berghei [23]) was 99.8% and the Activity (Plasmodium berghei [24]) was “Active”. For the same compound, the Activity (Salmonella typhimurium [25]) was 7%, the “Ratio IC50” value (Plasmodium falciparum [26]) was 1.4 and the Activity (Plasmodium berghei [27]) was 99.8%. The Activity (Salmonella typhimurium [28]) was 4%, the MSD (Plasmodium berghei [29]) was 30 days and the inhibition [30] was “inactive”. The CC50 at 24 h [31] was under 4000 nM, the IC50 (Plasmodium falciparum [32]) was 23 nM and the Activity (Salmonella typhimurium [33]) was 9%. For the same compound, the Activity (Plasmodium berghei [34]) was “Active”, the Activity (Plasmodium berghei [35]) was 99.6% and the MSD (Plasmodium berghei [36]) was 29.6 days. The Activity (Salmonella typhimurium [37]) was 5% and the inhibition [38] was “Active”.
In the case of `CC(C)(C)c1ccc(C(O)CCCN2CCC(C(O)(c3ccccc3)c3ccccc3)CC2)cc1` (stereo not given) [TERFENADINE], the Time (Heart [39]) is reported as 125 ms and the Time (Heart [40]) is reported as 99.83 ms.
